Experimental data taken from patent publication US9435795B2, “Enhanced deposition of chromogens utilizing pyrimidine analogs” (Ventana Medical Systems, Inc., priority 2010, dated 2016).
In brackets after ≈: the same amount, converted by molar mass. Several values for one entry are separate records, joined by “and”; a condition that tells them apart may be missing. Equal entries are not always repeated. Where two headings read alike, the source gives them in different places.

Columns and labels:
[1] = target: T1, ultraView HRP multimer (Armoracia rusticana, UniProt P00433); test: Michaelis-Menten kinetics of HRP-oxidized DAB with enhanced DAB chromogen mixtures; format: biochemical, horseradish
T1 construct: purchased Ventana Medical Systems (ultraView kit component)
T1 sequence (P00433 31-338 limits assumed): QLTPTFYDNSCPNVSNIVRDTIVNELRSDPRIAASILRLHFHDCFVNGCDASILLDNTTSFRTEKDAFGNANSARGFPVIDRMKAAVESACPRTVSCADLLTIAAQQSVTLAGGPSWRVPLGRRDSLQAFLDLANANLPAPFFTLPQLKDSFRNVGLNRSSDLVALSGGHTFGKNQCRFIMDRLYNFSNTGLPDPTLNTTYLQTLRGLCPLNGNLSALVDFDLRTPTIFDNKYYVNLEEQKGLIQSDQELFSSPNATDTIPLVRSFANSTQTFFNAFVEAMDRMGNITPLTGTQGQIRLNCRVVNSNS
Method: To further study the synergistic effect in the increased apparent Vmax for HRP-oxidized DAB, Michaelis-Menten kinetics were calculated for the best enhanced DAB chromogen mixtures in Table 3. […] The definition of Vmax=kcat·[E]total when the enzyme substrate concentration was at saturation levels. When the concentration of enzyme was kept constant, the apparent Vmax is proportional to kcat (the apparent turnover for HRP or the first order rate constant).

[2] = target: T2, horseradish peroxidase (HRP) (Armoracia rusticana, UniProt P00433); test: Plate assay: kinetic screening of enhancers of HRP-mediated DAB oxidation (ultraView Detection Kit, OD 455 nm); format: biochemical; settings: for Percent increase of apparent Vmax of HRP: relative to uView Vmax without enhancement
T2 construct: purchased VMSI (Ventana Medical Systems, Inc.) 760-500: 253-4290, 253-4292 and 253-4293
Method: The additives were directly added to a well containing the necessary reagents from the ultraView™ Detection Kit (VMSI 760-500: 253-4290, 253-4292 and 253-4293) in 1× Reaction Buffer (VMSI 950-300) and 0.1% fish gelatin. Fish gelatin was used to help disperse the oxidized DAB and inhibit its precipitation from solution. The ultraView™ Detection Kit was diluted to measure the formation of oxidized DAB by UV-VIS at 455 nm. Additives were tested at set concentrations to determine enhancement in the DAB oxidation reaction. The data were graphed, and the apparent maximum velocity (Vmax) was calculated at each additive concentration level.

[3] = test system: bcl2 in tonsil tissue; test: TSA-IHC tissue staining of bcl2 in tonsil tissue (TA-HQ deposition); settings: 10 mM during tyramide deposition; 8 minute primary Ab incubation
Method: Enhanced DAB deposition was evaluated on a TSA-IHC tissue staining of bcl2 in tonsil tissue. […] Tyramide deposition was performed with and without 10 mM 2-hydroxypyrimidine. […] The percent of cells stained with DAB increased in areas with low bcl2 antigen expression. Formalin fixed paraffin embedded tonsil tissue was mounted on Superfrost slides, deparaffinized and antigen retrieved using CC1 bulk reagent (Ventana® p/n 950-124). […] Slides were counterstained using Hematoxylin II (Ventana® p/n 790-2208) and Bluing Reagent (Ventana® p/n760-2037). The slides were dehydrated using gradient alcohols, cover slipped and viewed using a bright field microscope (FIGS. 23-26).

[4] = Solubility of additive in reaction buffer / aqueous buffers; format: physicochemical; settings: for solubility: reaction buffer, aqueous buffer, read-out: Solubility of additive in reaction buffer at room temperature
[5] = target: T2, horseradish peroxidase (HRP); test: Plate assay: enhancers added sequentially to ultraView Detection Kit (synergistic/antagonistic effects); format: biochemical; settings: for Effect on apparent velocity of HRP when added to a preceding assay mixture of Table 2: NMO added to mixture 4, 50 mM L-histidine or 10 mM pyrimidine added to mixture 5
Method: The same concentration of reagents from the ultraView™ Detection Kit (VMSI 760-500: 253-4290, 253-4292 and 253-4293) were used in 1× Reaction Buffer™ containing 0.1% fish gelatin for each trial. In each trial, the enhancers were added together one at a time.

[6] = Compatibility and stability of reformulated DAB Chromogen solution with additive; format: physicochemical
[7] = test system: bcl2 on tonsil tissue; test: IHC staining of bcl2 on tonsil tissue with enhanced DAB chromogen solutions, pathology scoring; settings: additive in DAB chromogen solution
Method: IHC staining was performed for bcl2 on tonsil tissue using enhanced DAB chromogen solutions to further examine enhancer synergistic effects on DAB deposition. Reader 1 performed all pathology evaluations during the same period of time.
Formalin fixed paraffin embedded tonsil tissue was mounted on Superfrost slides, deparaffinized and antigen retrieved using CC1 bulk reagent (Ventana® p/n 950-124). Following retrieval, one drop (100 μL) of UV Inhibitor (a component of the ultraView™ DAB kit) was dispensed onto a slide and incubated for 8 minutes. Following the incubation of the Inhibitor, 1 drop of the mouse anti-bcl2 (clone 124; Ventana® p/n 790-4464) was dispensed onto the slide and incubated for 16 minutes. Following 2 rinses with reaction buffer, the bcl2 antibody was detected using 1 drop of the ultraView™ universal HRP conjugate (a component of the ultraView™ DAB kit) and incubated on the slide for 8 minutes. One drop of DAB (5.5 mM DAB; 0.05% Brij® 35; plus any combination of enhancers investigated in table 3) and H2O2 were each added to the slides and incubated for 8 minutes. ultraView™ DAB was used as the reference. After rinsing the slides in reaction buffer, 100 μL of copper (component of ultraView™ DAB kit) was applied to slide for 4 minutes. Slides were counterstained using Hematoxylin II (Ventana® p/n 790-2208) and Bluing Reagent (Ventana p/n760-2037). […]

[8] = enhancer 10 mM in 50 mM imidazole, 10 mM calcium chloride, 10 mM boric acid
[9] = enhancer 10 mM, no enhancer 18.50
[10] = enhancer 50 mM, no enhancer 18.50, (sat) = reaction rate saturated by start of UV-VIS analysis
[11] = enhancer 100 mM, no enhancer 18.50, (sat) = reaction rate saturated by start of UV-VIS analysis

Vmax (apparent, HRP-oxidized DAB) [2, 9]	Vmax (apparent, HRP-oxidized DAB) [2, 10]	Vmax (apparent, HRP-oxidized DAB) [2, 11]	Enhancement of apparent velocity of HRP-mediated DAB oxidation (in words) [2]	Compound	other results
47.67 mOD/min	18.19 mOD/min	15.98 mOD/min		Oc1ccccn1 [2-Hydroxypyridine]	Vmax [1, 8]: 383 mOD/min; Percent increase of apparent Vmax of HRP ([2]; enhancer 10 mM): 157%
144.00 mOD/min	156.00 mOD/min	148.00 mOD/min		Oc1ncccn1 [2-Hydroxypyrimidine]	Vmax [1, 8]: 320 mOD/min; Tyramide deposition in TSA-IHC staining (in words) [3]: increased the tyramide deposition; Solubility in aqueous buffers (in words) [4]: do not have solubility or volatility problems
32.80 mOD/min				CC(=O)Nc1ccc(B(O)O)cc1 [4-AcHNPhB(OH)2, 4-acetylamidophenyl boronic acid]	Vmax (apparent, HRP-oxidized DAB) ([2]; enhancer 5 mM, no enhancer 18.50): 21.20 mOD/min; Percent increase of apparent Vmax of HRP ([2]; enhancer 10 mM): 77%; Vmax (apparent, HRP-oxidized DAB) ([2]; enhancer 20 mM, no enhancer 18.50): 32.00 mOD/min
			no enhancement	CN(C)c1ccncc1 [4-dimethylaminopyridine]	
			no enhancement	c1ccc2[nH]cnc2c1 [Benzimidazole]	
67.47 mOD/min				OB(O)O [Boric Acid]	Percent increase of apparent Vmax of HRP ([2]; enhancer 10 mM): 265%; Percent increase of apparent Vmax of HRP ([2]; enhancer 50 mM): 592%
				[Ca+2].[Cl-].[Cl-] [Calcium Chloride]	Vmax (apparent, HRP-oxidized DAB) [2]: 43.50 mOD/min and 52.50 mOD/min and 57.00 mOD/min
36.00 mOD/min	66.00 mOD/min		increased the apparent velocity of HRP	Nc1cc[nH]c(=O)n1 [Cytosine]	Solubility in aqueous buffers (in words) [4]: solubility problems in aqueous buffers; solubility ([4]; additive 50 mM): 10 to 50 mM (≈ 1110 to 5560 µg/mL); solubility ([4]; additive 100 mM): 10 to 100 mM (≈ 1110 to 11100 µg/mL)
28.80 mOD/min				c1c[nH]cn1 [Imidazole]	Vmax ([1]; 10 mM buffer salt with 10 mM pyrimidine, no enhancer 228): 330 mOD/min; Vmax ([1]; 50 mM buffer salt with 10 mM 2-hydroxypyrimidine (FIG. 19: also 10 mM boric acid, 10 mM calcium chloride)): 320 mOD/min; Percent increase of apparent Vmax of HRP ([2]; enhancer 10 mM): 56%; Vmax (apparent, HRP-oxidized DAB), enhancers added sequentially ([5]; no enhancement 18.50): 34.00 mOD/min; Precipitation of DAB from reformulated DAB Chromogen solution ([6]; higher concentrations of imidazole, 50 mM L-histidine): causing DAB to precipitate; DAB staining on tissue, pathological review (in words) [7]: significantly increased the DAB staining intensity
				C[N+]1([O-])CCOCC1 [NMO, 4-methyl-morpholine N-oxide]	Vmax (apparent, HRP-oxidized DAB) ([2]; enhancer 0.13% (10.7 mM)): 33.60 mOD/min; Vmax (apparent, HRP-oxidized DAB) ([2]; enhancer 0.25% (21.3 mM)): 43.60 mOD/min; Vmax (apparent, HRP-oxidized DAB) ([2]; enhancer 0.50% (42.7 mM)): 51.60 mOD/min; Effect on apparent velocity of HRP when added to a preceding assay mixture of Table 2 [5]: antagonistic effect
104.00 mOD/min	104.00 mOD/min	36.00 mOD/min		[O-][n+]1cccnc1 [Pyrimidine-N-oxide]	Vmax [1, 8]: 374 mOD/min; Solubility in aqueous buffers (in words) [4]: do not have solubility or volatility problems; Functionality over time of DAB reformulated with additive [6]: lost functionality and stopped staining with time; DAB staining on tissue, pathological review (in words) [7]: best DAB signal to background noise ratio for the two enhancers
104.00 mOD/min	124.00 mOD/min	36.80 (sat) mOD/min		c1cncnc1 [Pyrimidine]	Vmax ([1]; enhancer 50 mM in 50 mM imidazole, 10 mM calcium chloride, 10 mM boric acid): 326 mOD/min; Percent increase of apparent Vmax of HRP ([2]; enhancer 10 mM): 462%; Percent increase of apparent Vmax of HRP ([2]; enhancer 50 mM): 570%; Effect on apparent velocity of HRP when added to a preceding assay mixture of Table 2 [5]: increased the apparent velocity of HRP
				CC1(C)CCCC(C)(C)N1[O] [TEMPO, 2,2,6,6-tetramethylpiperidine-1-oxyl]	Vmax (apparent, HRP-oxidized DAB) ([2]; enhancer 0.13% (8 mM)): 18.00 mOD/min; Vmax (apparent, HRP-oxidized DAB) ([2]; enhancer 0.25% (16 mM)): 24.80 mOD/min; Vmax (apparent, HRP-oxidized DAB) ([2]; enhancer 0.50% (32 mM)): 21.20 mOD/min
66.40 mOD/min	27.00 (sat) mOD/min	27.05 (sat) mOD/min		c1cscn1 [Thiazole]	
82.00 mOD/min	86.00 mOD/min	74.00 mOD/min	increased the apparent velocity of HRP	Cc1c[nH]c(=O)[nH]c1=O [Thymine]	
			no enhancement	CN(C)c1ccc2nc3ccc(=[N+](C)C)cc-3sc2c1 [methylene blue]	

Compound	Vmax (apparent, HRP-oxidized DAB) [2, 9]	Vmax (apparent, HRP-oxidized DAB) [2, 10]	Vmax (apparent, HRP-oxidized DAB) [2, 11]	Enhancement of apparent velocity of HRP-mediated DAB oxidation (in words) [2]	other results
O=C1CC(=O)NC(=S)N1 [2-Thiobarbituric Acid]	54.00 mOD/min	56.00 mOD/min	76.00 mOD/min		
N[C@@H](Cc1c[nH]c2ccccc12)C(=O)O [L-Tryptophan]	30.00 mOD/min	52.00 mOD/min	64.00 mOD/min		
c1cocn1 [Oxazole]	24.00 mOD/min	40.00 mOD/min	18.00 (sat) mOD/min		
O=c1cc[nH]c(=O)[nH]1 [Uracil]	52.00 mOD/min	72.00 mOD/min		increased the apparent velocity of HRP	Solubility in aqueous buffers (in words) [4]: solubility problems in aqueous buffers; solubility ([4]; additive 50 mM): 10 to 50 mM (≈ 1120 to 5600 µg/mL); solubility ([4]; additive 100 mM): 10 to 100 mM (≈ 1120 to 11200 µg/mL)
c1ccc2c(c1)Nc1ccccc1S2 [phenothiazine]				no enhancement	
